From PubChem BioAssay (NCI)
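Method: 48-hour compound exposure of cells in 96-well plates, five concentrations, linear interpolation of endpoints. At the TGI there is no net growth.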

Test system: MOLT-4 leukemia
Assay: NCI tumour cell line growth inhibition, 48 h

SMILES	TGI
O=C1[C@@H]2C(c3cccc([N+](=O)[O-])c3)=NO[C@@H]2C(=O)N1c1ccc(Cc2ccc(N3C(=O)[C@H]4C(c5cccc([N+](=O)[O-])c5)=NO[C@H]4C3=O)cc2)cc1	> 100 µM
O=C(NO)C(=O)Nc1cc(Cl)ccc1Cl	> 100 µM

Test system: NCI-H226 lung
Assay: NCI tumour cell line growth inhibition, 48 h

SMILES	TGI
COC(=O)C1Cc2c([nH]c3ccccc23)C(C2CCCCC2)N1 (configuration not stated)	> 100 µM
CCN(C(=N)C#N)c1ccccc1	> 100 µM
O=C(NO)C(=O)Nc1cc(Cl)ccc1Cl	> 100 µM

Test system: NCI-H23 lung
Assay: NCI tumour cell line growth inhibition, 48 h

SMILES	TGI
COC(=O)C1Cc2c([nH]c3ccccc23)C(C2CCCCC2)N1 (configuration not stated)	> 100 µM
CCN(C(=N)C#N)c1ccccc1	> 100 µM
O=C(NO)C(=O)Nc1cc(Cl)ccc1Cl	> 100 µM

Test system: NCI-H460 lung
Assay: NCI tumour cell line growth inhibition, 48 h

SMILES	TGI
COC(=O)C1Cc2c([nH]c3ccccc23)C(C2CCCCC2)N1 (configuration not stated)	> 100 µM
CCN(C(=N)C#N)c1ccccc1	> 100 µM
O=C1[C@@H]2C(c3cccc([N+](=O)[O-])c3)=NO[C@@H]2C(=O)N1c1ccc(Cc2ccc(N3C(=O)[C@H]4C(c5cccc([N+](=O)[O-])c5)=NO[C@H]4C3=O)cc2)cc1	> 100 µM
O=C(NO)C(=O)Nc1cc(Cl)ccc1Cl	> 100 µM

Test system: NCI-H522 lung
Assay: NCI tumour cell line growth inhibition, 48 h

SMILES	TGI
COC(=O)C1Cc2c([nH]c3ccccc23)C(C2CCCCC2)N1 (configuration not stated)	> 100 µM
CCN(C(=N)C#N)c1ccccc1	> 100 µM
O=C1[C@@H]2C(c3cccc([N+](=O)[O-])c3)=NO[C@@H]2C(=O)N1c1ccc(Cc2ccc(N3C(=O)[C@H]4C(c5cccc([N+](=O)[O-])c5)=NO[C@H]4C3=O)cc2)cc1	> 100 µM
O=C(NO)C(=O)Nc1cc(Cl)ccc1Cl	49.1 µM

Test system: OVCAR-3 ovarian
Assay: NCI tumour cell line growth inhibition, 48 h

SMILES	TGI
COC(=O)C1Cc2c([nH]c3ccccc23)C(C2CCCCC2)N1 (configuration not stated)	> 100 µM
CCN(C(=N)C#N)c1ccccc1	> 100 µM
O=C1[C@@H]2C(c3cccc([N+](=O)[O-])c3)=NO[C@@H]2C(=O)N1c1ccc(Cc2ccc(N3C(=O)[C@H]4C(c5cccc([N+](=O)[O-])c5)=NO[C@H]4C3=O)cc2)cc1	> 100 µM
O=C(NO)C(=O)Nc1cc(Cl)ccc1Cl	> 100 µM

Test system: OVCAR-4 ovarian
Assay: NCI tumour cell line growth inhibition, 48 h

SMILES	TGI
COC(=O)C1Cc2c([nH]c3ccccc23)C(C2CCCCC2)N1 (configuration not stated)	> 100 µM
CCN(C(=N)C#N)c1ccccc1	> 100 µM
O=C1[C@@H]2C(c3cccc([N+](=O)[O-])c3)=NO[C@@H]2C(=O)N1c1ccc(Cc2ccc(N3C(=O)[C@H]4C(c5cccc([N+](=O)[O-])c5)=NO[C@H]4C3=O)cc2)cc1	> 100 µM
O=C(NO)C(=O)Nc1cc(Cl)ccc1Cl	> 100 µM

Test system: OVCAR-5 ovarian
Assay: NCI tumour cell line growth inhibition, 48 h

SMILES	TGI
COC(=O)C1Cc2c([nH]c3ccccc23)C(C2CCCCC2)N1 (configuration not stated)	> 100 µM
CCN(C(=N)C#N)c1ccccc1	> 100 µM
O=C1[C@@H]2C(c3cccc([N+](=O)[O-])c3)=NO[C@@H]2C(=O)N1c1ccc(Cc2ccc(N3C(=O)[C@H]4C(c5cccc([N+](=O)[O-])c5)=NO[C@H]4C3=O)cc2)cc1	> 100 µM
O=C(NO)C(=O)Nc1cc(Cl)ccc1Cl	> 100 µM

Test system: OVCAR-8 ovarian
Assay: NCI tumour cell line growth inhibition, 48 h

SMILES	TGI
COC(=O)C1Cc2c([nH]c3ccccc23)C(C2CCCCC2)N1 (configuration not stated)	> 100 µM
CCN(C(=N)C#N)c1ccccc1	> 100 µM
O=C(NO)C(=O)Nc1cc(Cl)ccc1Cl	> 100 µM

Test system: RPMI-8226 leukemia
Assay: NCI tumour cell line growth inhibition, 48 h

SMILES	TGI
CCN(C(=N)C#N)c1ccccc1	> 100 µM
O=C1[C@@H]2C(c3cccc([N+](=O)[O-])c3)=NO[C@@H]2C(=O)N1c1ccc(Cc2ccc(N3C(=O)[C@H]4C(c5cccc([N+](=O)[O-])c5)=NO[C@H]4C3=O)cc2)cc1	> 100 µM
O=C(NO)C(=O)Nc1cc(Cl)ccc1Cl	> 100 µM

Test system: RXF 393 renal
Assay: NCI tumour cell line growth inhibition, 48 h

SMILES	TGI
CCN(C(=N)C#N)c1ccccc1	> 100 µM
O=C1[C@@H]2C(c3cccc([N+](=O)[O-])c3)=NO[C@@H]2C(=O)N1c1ccc(Cc2ccc(N3C(=O)[C@H]4C(c5cccc([N+](=O)[O-])c5)=NO[C@H]4C3=O)cc2)cc1	> 100 µM
O=C(NO)C(=O)Nc1cc(Cl)ccc1Cl	> 100 µM

Test system: RXF-631 renal
Assay: NCI tumour cell line growth inhibition, 48 h

SMILES	TGI
COC(=O)C1Cc2c([nH]c3ccccc23)C(C2CCCCC2)N1 (configuration not stated)	> 100 µM
CCN(C(=N)C#N)c1ccccc1	> 100 µM
O=C1[C@@H]2C(c3cccc([N+](=O)[O-])c3)=NO[C@@H]2C(=O)N1c1ccc(Cc2ccc(N3C(=O)[C@H]4C(c5cccc([N+](=O)[O-])c5)=NO[C@H]4C3=O)cc2)cc1	> 100 µM
O=C(NO)C(=O)Nc1cc(Cl)ccc1Cl	> 100 µM

Test system: SF-268 CNS
Assay: NCI tumour cell line growth inhibition, 48 h

SMILES	TGI
COC(=O)C1Cc2c([nH]c3ccccc23)C(C2CCCCC2)N1 (configuration not stated)	> 100 µM
CCN(C(=N)C#N)c1ccccc1	> 100 µM
O=C(NO)C(=O)Nc1cc(Cl)ccc1Cl	> 100 µM

Test system: SF-295 CNS
Assay: NCI tumour cell line growth inhibition, 48 h

SMILES	TGI
COC(=O)C1Cc2c([nH]c3ccccc23)C(C2CCCCC2)N1 (configuration not stated)	> 100 µM
CCN(C(=N)C#N)c1ccccc1	> 100 µM
O=C(NO)C(=O)Nc1cc(Cl)ccc1Cl	> 100 µM

Test system: SF-539 CNS
Assay: NCI tumour cell line growth inhibition, 48 h

SMILES	TGI
COC(=O)C1Cc2c([nH]c3ccccc23)C(C2CCCCC2)N1 (configuration not stated)	> 100 µM
CCN(C(=N)C#N)c1ccccc1	27.6 µM
O=C1[C@@H]2C(c3cccc([N+](=O)[O-])c3)=NO[C@@H]2C(=O)N1c1ccc(Cc2ccc(N3C(=O)[C@H]4C(c5cccc([N+](=O)[O-])c5)=NO[C@H]4C3=O)cc2)cc1	> 100 µM
O=C(NO)C(=O)Nc1cc(Cl)ccc1Cl	> 100 µM

Test system: SK-MEL-2 melanoma
Assay: NCI tumour cell line growth inhibition, 48 h

SMILES	TGI
COC(=O)C1Cc2c([nH]c3ccccc23)C(C2CCCCC2)N1 (configuration not stated)	> 100 µM
